Results published in patent publication US20130202686A1 (priority 2010, published 2013).
Where a name gives a salt, the structure may show the parent alone.

What was measured:
[1] = Donepezil Liposome Drug Dynamics 2 (plasma concentration of donepezil hydrochloride); conditions: rat, SC 5 mg/kg
Description: (Em) of 385 nm was quantified by high performance liquid chromatography using a fluorophotometer.
Furthermore, for comparison, donepezil used alone was administered subcutaneously into a back part of a rat in a dose of 5 mg/kg. For the donepezil used alone, blood was sampled from a tail vein after lapses of 0.5, 1, 5, 10, 30, 120, 480, 1440, and 2880 minutes from the administration. For the liposome compositions, on the other hand, blood was sampled from a tail vein after lapses of 1, 3, 4, 8, 24, 48, 72, 96, 120, 144, 168, 192, 216, 264, 288, 312, and 336 hours from the administration.

[2] = rat, in vivo, sc, 5 mg/kg, 4 h
Description: For the bupivacaine hydrochloride liposome prepared in Preparation Example 12 and bupivacaine hydrochloride used alone, a drug dynamics test was conducted. Subcutaneous administration into a back part of a rat was conducted in a dose, in terms of the amount of bupivacaine hydrochloride, as set forth in Table 7. After lapses of 1, 24, 72, 120, and 168 hours from the administration of the bupivacaine hydrochloride liposome composition, and after lapses of 0.5, 4, and 24 hours from the administration of the bupivacaine hydrochloride used alone, back region subcutaneous tissue in the administration site was sampled and subjected to a homogenizing treatment. Subsequently, the homogenized solution was treated, the resultant sample solution was subjected to high performance liquid chromatography determination (UV-visible absorptiometer; measurement wavelength 210 nm), and the concentration of bupivacaine hydrochloride remaining in the back region subcutaneous tissue in the administration site was determined. The retention rate of bupivacaine hydrochloride (used alone) in the administration site was lowered to below 1% in four hours after the administration. […] On the other hand, the bupivacaine hydrochloride liposome gave a profile of sustained release from the administration site, and about 35% of bupivacaine hydrochloride remained on the seventh day from the administration.

With `COc1cc2c(cc1OC)C(=O)C(CC1CCN(Cc3ccccc3)CC1)C2` (stereo not drawn) [donepezil hydrochloride, Donepezil hydrochloride] the “concentration in blood after 48 hours” value [1] was “below the detection limit” and the “time of maximum concentration in blood” value [1] was 0.5 h.

With `CCCCN1CCCCC1C(=O)Nc1c(C)cccc1C` (stereo not drawn) [bupivacaine hydrochloride, Bupivacaine hydrochloride] the “retention rate of bupivacaine hydrochloride in the administration site” value [2] was “below 1%”.
